What was measured:
[1] = target: T1, Cav2.3 (Homo sapiens, UniProt Q15878); assay: Whole-cell patch clamp assay (QPatch 16X); assay type: cell-based; settings: whole-cell voltage clamp, HEK-293 T-Rex/Kir2.1/Cav2.3e-β4-α2δ1 cells, room temperature; read-out: Cav2.3 (pIC50) (converted)
Protocol: HEK-293 T-Rex/Kir2.1/Cav2.3e-β4-α2δ1 cells were seeded 96 hours before experiment and doxycycline at 0.2 μg/mL was added 24 hours before experiment. Just before the experiments cells were washed twice with D-PBS w/o Ca2+/Mg2+ and gently detached from the flask with Detachin. Cells were then re-suspended in the suspension solution (25 mL EX-CELL ACF CHO medium; 0.25 mL of 100× Penicillin/Streptomycin) and placed on the Automated Patch-clamp platform (QPatch 16X).
Standard whole-cell voltage clamp experiments were performed at room temperature using the single hole technology and the following intracellular and extracellular solutions (ICS and ECS, respectively) were used. ICS (mM): CsF 60, CsCl 50, NaCl 10, EGTA 20, BAPTA 5, HEPES 10, NaGTP 0.3, MgATP 5 (pH 7.2; ECS (mM): NMDG-Cl 120, BaCl2 20, HEPES 10, EGTA 7 (pH 7.4). After establishment of the seal and the passage in the whole-cell configuration, the Cav2.3 dependent current was evoked by challenging the cells with the following voltage protocol: the plasma membrane was held at −80 mV then a 50 ms-long depolarizing pulse at 0 mV, followed by a 50 ms-long hyperpolarizing pulse at −100 mV were applied and finally the plasma membrane was held back to −80 mV. This voltage protocol was applied every 10 seconds. Cav2.3 dependent current was first measured in control condition (vehicle, 0.1% DMSO), in the presence of increasing concentration of the compound under investigation and finally SNX 482 was added to fully block any R-type Cav2.3 dependent current.
For data collection, the Sophion proprietary software was used while the analysis was performed off-line using Excel and GraphPad Prism. The inward current (Area Under Curve) measured during each depolarizing pulse was normalized to cell membrane capacitance (Cm) to obtain the average inward current density in each condition (control, compound under investigation and SNX 482). Then, the inhibitory effect of the compound under investigation was evaluated as % of the remaining inward current, normalized to the internal control. […] All data were expressed as mean±S.E
Target sequence in this assay (Q15878 1-747 limits assumed): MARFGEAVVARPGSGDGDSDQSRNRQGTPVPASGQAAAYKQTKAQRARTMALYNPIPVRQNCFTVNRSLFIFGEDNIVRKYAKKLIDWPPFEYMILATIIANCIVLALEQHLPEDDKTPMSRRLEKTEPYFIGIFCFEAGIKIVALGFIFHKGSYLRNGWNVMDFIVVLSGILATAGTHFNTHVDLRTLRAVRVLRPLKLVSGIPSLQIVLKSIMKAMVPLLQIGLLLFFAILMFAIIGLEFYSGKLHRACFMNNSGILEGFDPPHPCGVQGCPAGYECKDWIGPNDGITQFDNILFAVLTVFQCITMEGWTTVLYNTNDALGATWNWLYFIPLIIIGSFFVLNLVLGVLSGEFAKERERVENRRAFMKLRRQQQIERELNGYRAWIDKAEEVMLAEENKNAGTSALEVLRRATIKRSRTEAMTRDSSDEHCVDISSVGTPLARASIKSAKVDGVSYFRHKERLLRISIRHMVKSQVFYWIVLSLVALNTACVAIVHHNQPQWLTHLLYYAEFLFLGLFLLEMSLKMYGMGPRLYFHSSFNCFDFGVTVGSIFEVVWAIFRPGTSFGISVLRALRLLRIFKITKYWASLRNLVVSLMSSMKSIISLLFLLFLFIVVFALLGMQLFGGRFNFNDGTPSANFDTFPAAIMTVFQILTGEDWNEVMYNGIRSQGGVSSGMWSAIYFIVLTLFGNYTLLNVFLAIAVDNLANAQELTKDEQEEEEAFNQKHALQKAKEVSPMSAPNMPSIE
Target sequence in this assay (Q15878 1126-1966 limits assumed): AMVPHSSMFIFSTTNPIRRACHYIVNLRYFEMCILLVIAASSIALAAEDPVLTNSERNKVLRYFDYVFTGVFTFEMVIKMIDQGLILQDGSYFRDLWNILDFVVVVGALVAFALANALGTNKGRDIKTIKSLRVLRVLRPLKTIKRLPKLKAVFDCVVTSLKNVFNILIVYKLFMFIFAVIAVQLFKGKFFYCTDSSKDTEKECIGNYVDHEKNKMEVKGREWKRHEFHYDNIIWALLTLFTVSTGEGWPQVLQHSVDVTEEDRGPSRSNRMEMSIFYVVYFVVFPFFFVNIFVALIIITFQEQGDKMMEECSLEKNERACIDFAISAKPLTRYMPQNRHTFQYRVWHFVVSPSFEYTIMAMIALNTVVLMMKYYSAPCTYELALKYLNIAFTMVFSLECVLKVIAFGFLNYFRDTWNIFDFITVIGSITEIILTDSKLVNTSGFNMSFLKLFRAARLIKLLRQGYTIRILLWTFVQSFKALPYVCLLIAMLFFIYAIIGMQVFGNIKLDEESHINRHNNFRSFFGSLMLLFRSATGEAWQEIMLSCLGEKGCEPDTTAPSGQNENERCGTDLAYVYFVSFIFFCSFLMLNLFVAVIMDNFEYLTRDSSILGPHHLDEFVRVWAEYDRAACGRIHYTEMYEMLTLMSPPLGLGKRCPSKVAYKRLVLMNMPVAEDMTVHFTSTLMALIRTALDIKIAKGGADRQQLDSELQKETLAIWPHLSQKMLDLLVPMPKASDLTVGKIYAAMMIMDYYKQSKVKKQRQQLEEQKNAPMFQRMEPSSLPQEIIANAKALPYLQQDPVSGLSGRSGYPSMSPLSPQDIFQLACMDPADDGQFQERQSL

[2] = target: T1, Cav2.3; assay: Human Cav2.3 channel calcium-influx assay; assay type: cell-based; settings: HEK-293 T-Rex/Kir2.1/Cav2.3e-β4-α2δ1 cells, Fluo8 fluorescence, without pluronic acid; read-out: Cav2.3 (pIC50) (converted)
In short: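 Doxycycline-induced HEK-293 T-Rex/Kir2.1 clone stably expressing Cav2.3e with β4-α2δ1, loaded with Fluo8 NW; compounds (8 points from 30 μM, half-log, 0.3% DMSO) preincubated 3 min at RT. Depolarized with 20 mM KCl/2 mM CaCl2; peak-minus-baseline fluorescence over 130 s normalized to neutral and inhibitor controls as % activity.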
Target sequence in this assay (Q15878 1-747 limits assumed): as the sequence (Q15878 1-747 limits assumed) above
Target sequence in this assay (Q15878 1126-2313 limits assumed): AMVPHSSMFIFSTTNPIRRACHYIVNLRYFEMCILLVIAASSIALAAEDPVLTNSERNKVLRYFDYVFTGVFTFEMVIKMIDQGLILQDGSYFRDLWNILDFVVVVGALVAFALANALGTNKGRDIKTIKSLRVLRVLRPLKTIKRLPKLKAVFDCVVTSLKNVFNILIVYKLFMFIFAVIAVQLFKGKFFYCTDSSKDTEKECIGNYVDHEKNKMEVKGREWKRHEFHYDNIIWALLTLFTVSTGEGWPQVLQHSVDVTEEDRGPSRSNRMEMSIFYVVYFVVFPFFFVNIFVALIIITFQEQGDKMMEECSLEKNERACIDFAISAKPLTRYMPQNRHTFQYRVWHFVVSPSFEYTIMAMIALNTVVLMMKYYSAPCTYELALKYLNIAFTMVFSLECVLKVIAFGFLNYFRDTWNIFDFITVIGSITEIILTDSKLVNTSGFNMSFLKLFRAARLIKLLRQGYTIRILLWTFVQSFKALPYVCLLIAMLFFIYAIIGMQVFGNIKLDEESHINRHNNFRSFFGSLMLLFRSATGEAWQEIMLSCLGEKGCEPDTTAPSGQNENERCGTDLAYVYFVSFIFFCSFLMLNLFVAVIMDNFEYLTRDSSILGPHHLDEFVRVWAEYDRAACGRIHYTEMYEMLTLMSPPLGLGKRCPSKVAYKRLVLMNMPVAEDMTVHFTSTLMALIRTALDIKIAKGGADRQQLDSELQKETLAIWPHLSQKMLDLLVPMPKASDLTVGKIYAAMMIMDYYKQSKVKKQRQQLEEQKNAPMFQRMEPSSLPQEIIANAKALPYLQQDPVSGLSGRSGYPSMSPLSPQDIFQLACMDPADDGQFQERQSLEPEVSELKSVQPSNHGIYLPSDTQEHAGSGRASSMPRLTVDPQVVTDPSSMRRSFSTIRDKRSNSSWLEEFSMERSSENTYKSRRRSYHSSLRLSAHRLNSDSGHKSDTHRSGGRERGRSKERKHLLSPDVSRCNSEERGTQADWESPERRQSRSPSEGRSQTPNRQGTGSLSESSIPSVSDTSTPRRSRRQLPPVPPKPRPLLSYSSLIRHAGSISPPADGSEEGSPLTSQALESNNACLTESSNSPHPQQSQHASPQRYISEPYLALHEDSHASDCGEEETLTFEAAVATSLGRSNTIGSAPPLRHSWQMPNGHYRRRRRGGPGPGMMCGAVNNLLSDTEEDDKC

| Structure (SMILES) | IC50 [1] [nM] | IC50 [2] [nM] |
| --- | --- | --- |
| CC1CC2(CCC2)CN1S(=O)(=O)c1ccc2c(c1)CN(C(=O)c1ccccc1)CC2 (single isomer, unassigned) [Example 27, (7-((7-Methyl-6-azaspiro[3.4]octan-6-yl)sulfonyl)-3,4-dihydroisoquinolin-2(1H)-yl)(phenyl)methanone] | 832 | 851 |
| CCC1CC2(CCC2)CN1S(=O)(=O)c1ccc2c(c1)CN(C(=O)C(F)(F)F)CC2 (stereo not shown) [Example 33, 1-(7-((7-Ethyl-6-azaspiro[3.4]octan-6-yl)sulfonyl)-3,4-dihydroisoquinolin-2(1H)-yl)-2,2,2-trifluoroethan-1-one] | 2820 | 1860 |
| CC1CC2(CCC2)CN1S(=O)(=O)c1ccc2c(c1)CN(C(=O)c1ccccc1)CC2 (stereo not shown) [Example 26, (7-((7-Methyl-6-azaspiro[3.4]octan-6-yl)sulfonyl)-3,4-dihydroisoquinolin-2(1H)-yl)(phenyl)methanone] | 525 | 1100 |
| CCC1CC2(CCC2)CN1S(=O)(=O)c1cccs1 (single isomer, unassigned) [Example 71, 7-ethyl-6-(thiophen-2-ylsulfonyl)-6-azaspiro[3.4]octane] | 1580 | 1170 |
| CCOC(=O)N1CCc2ccc(S(=O)(=O)N3CC4(CCC4)CC3C)cc2C1 (stereo not shown) [Example 22, Ethyl 7-((7-methyl-6-azaspiro[3.4]octan-6-yl)sulfonyl)-3,4-dihydroisoquinoline-2(1H)-carboxylate] | 759 | 741 |
| CC1CC2(CCC2)CN1S(=O)(=O)c1ccc2c(c1)CN(C(=O)c1ccccc1)CC2 (single isomer, unassigned) [Example 28, (7-((7-methyl-6-azaspiro[3.4]octan-6-yl)sulfonyl)-3,4-dihydroisoquinolin-2(1H)-yl)(phenyl)methanone] | 1700 | 1510 |
| CC1CC2(CCC2)CN1S(=O)(=O)c1cccs1 (single isomer, unassigned) [Example 104, 7-methyl-6-(thiophen-2-ylsulfonyl)-6-azaspiro[3.4]octane] | 3720 | 1410 |
| CCC1CC2(CCC2)CN1S(=O)(=O)c1ccc2nc(C)sc2c1 (stereo not shown) [Example 1, 6-((7-Ethyl-6-azaspiro[3.4]octan-6-yl)sulfonyl)-2-methylbenzo[d]thiazole] | 2820 | 1410 |
| CC1CC2(CCC2)CN1S(=O)(=O)c1ccc2c(c1)CN(C(=O)Cc1ccccc1)CC2 (stereo not shown) [Example 21, 1-(7-((7-Methyl-6-azaspiro[3.4]octan-6-yl)sulfonyl)-3,4-dihydroisoquinolin-2(1H)-yl)-2-phenylethan-1-one] | 933 | 955 |

Continued, values first:

| IC50 [1] [nM] | IC50 [2] [nM] | Structure (SMILES) |
| --- | --- | --- |
| 2340 | 1580 | CC(C)C(=O)N1CCc2ccc(S(=O)(=O)N3CC4(CCC4)CC3C)cc2C1 (single isomer, unassigned) [Example 32, 2-methyl-1-(7-((7-methyl-6-azaspiro[3.4]octan-6-yl)sulfonyl)-3,4-dihydroisoquinolin-2(1H)-yl)propan-1-one] |
| 1700 | 912 | CC(C)C(=O)N1CCc2ccc(S(=O)(=O)N3CC4(CCC4)CC3C)cc2C1 (stereo not shown) [Example 30, 2-Methyl-1-(7-((7-methyl-6-azaspiro[3.4]octan-6-yl)sulfonyl)-3,4-dihydroisoquinolin-2(1H)-yl)propan-1-one] |
| 4070 | 646 | CC(C)C(=O)N1CCc2ccc(S(=O)(=O)N3CC4(CCC4)CC3C)cc2C1 (single isomer, unassigned) [Example 31, 2-Methyl-1-(7-((7-methyl-6-azaspiro[3.4]octan-6-yl)sulfonyl)-3,4-dihydroisoquinolin-2(1H)-yl)propan-1-one] |
| 832 | 501 | CCOC(=O)N1CCc2ccc(S(=O)(=O)N3CC4(CCC4)CC3C)cc2C1 (single isomer, unassigned) [Example 23, Ethyl 7-((7-methyl-6-azaspiro[3.4]octan-6-yl)sulfonyl)-3,4-dihydroisoquinoline-2(1H)-carboxylate] |
| 1170 | 708 | CC(C)C(=O)N1CCc2ccc(S(=O)(=O)N3CC4(CCCC4)CC3C)cc2C1 (stereo not shown) [Example 100, 2-Methyl-1-(7-((3-methyl-2-azaspiro[4.4]nonan-2-yl)sulfonyl)-3,4-dihydroisoquinolin-2(1H)-yl)propan-1-one] |

Reference: patent publication US20250101003A1, “SPIROCYCLIC CAV2.3 ANTAGONISTS” (LARIO THERAPEUTICS LIMITED, priority 2021, published 2025)
